According to US20240166646A1, “1H-PYRROLO[2,3-B]PYRIDINE DERIVATIVES AS BCL-2 INHIBITORS FOR THE TREATMENT OF NEOPLASTIC AND AUTOIMMUNE DISEASES” (Newave Pharmaceutical Inc., priority 2020, published 2024):

Tests used:
[1] = in vivo; cited from earlier work
[2] = cited from earlier work
established tumors = details: mouse, in vivo; cited from earlier work
[3] = tested on: BCL-2-dependent acute lymphoblastic leukemia (ALL) cell line RS4; 11 with G101V mutation; experiment: In vitro anti-proliferation assay (ATPlite) in RS4; 11 with G101V mutation; format: cell-based; details: about 72 hours incubation, medium with 5% FBS or 10% normal human serum, ATPlite luminescence
Method in brief: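 About 1×10^4 cells per well exposed to a compound dose range for about 72 h in medium with 5% FBS or 10% normal human serum. ATP content read by ATPlite luminescence after lysis. IC50 derived from dose-response.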

Mcl-1 = Mcl-1 (Homo sapiens (Human), UniProt Q07820); details: cited from earlier work
RS4; 11 cells = details: cited from earlier work
CLL = details: average; read-out: average EC50, apoptosis in CLL; cited from earlier work
RS4; 11 xenografts = details: single dose of 100 mg/kg; cited from earlier work
DoHH2 xenograft = details: single agent or in combination with Bendamustine and other agents; cited from earlier work
Granta-519 xenograft = details: single agent or in combination with Bendamustine and other agents; cited from earlier work
[4] = tested on: CLL who have 17p deletion; details: Human Phase I and II data; cited from earlier work
Bcl-w = Bcl-w (Homo sapiens (Human), UniProt Q92843); details: cited from earlier work
SCLC H146 cell line = details: read-out: IC50 against SCLC H146 cell line; cited from earlier work
H345 xenograft = details: 100 mg/kg/day, H345 xenograft model; cited from earlier work
[5] = tested on: xenograft models of small-cell lung cancer and acute lymphoblastic leukemia; details: oral administration, alone; cited from earlier work
circulating platelets = details: clinical trial, patients; cited from earlier work
Bcl-2 = Bcl-2 (Homo sapiens (Human), UniProt P10415); experiment: Bcl-2 competition binding (fluorescence polarization) assay; details: fluorescein labeled BH3 peptide 15 nM, Bcl-2 protein 30 nM, 3 hours of incubation at room temperature
Method in brief: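 Fluorescence polarization competition of 15 nM labeled 23-mer BH3 peptide with 30 nM purified Bcl-2, in 20 mM Hepes pH 7.0, 50 mM KCl, 5 mM MgCl2, 20 mM Na2MoO4, 0.1 mg/ml bovine gamma globulin, 0.01% NP40. Compounds 20 μM to 2 nM final; mP read after 3 h at room temperature, background-subtracted. IC50 from sigmoidal dose-response fit.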

Chain of Bcl-2 (P10415 whole entry): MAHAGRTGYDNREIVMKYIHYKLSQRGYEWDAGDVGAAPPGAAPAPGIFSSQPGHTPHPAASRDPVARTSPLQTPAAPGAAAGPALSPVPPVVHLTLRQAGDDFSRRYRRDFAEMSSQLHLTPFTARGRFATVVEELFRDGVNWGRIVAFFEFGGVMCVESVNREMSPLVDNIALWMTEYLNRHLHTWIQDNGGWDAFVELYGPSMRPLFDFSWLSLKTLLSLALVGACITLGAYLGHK
Chain of Bcl-w (Q92843 whole entry): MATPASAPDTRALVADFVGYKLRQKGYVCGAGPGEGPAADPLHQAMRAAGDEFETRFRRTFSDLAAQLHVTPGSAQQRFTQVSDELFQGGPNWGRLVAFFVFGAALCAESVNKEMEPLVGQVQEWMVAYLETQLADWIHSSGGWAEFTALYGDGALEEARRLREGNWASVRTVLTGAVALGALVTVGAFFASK
Chain of Mcl-1 (Q07820 whole entry): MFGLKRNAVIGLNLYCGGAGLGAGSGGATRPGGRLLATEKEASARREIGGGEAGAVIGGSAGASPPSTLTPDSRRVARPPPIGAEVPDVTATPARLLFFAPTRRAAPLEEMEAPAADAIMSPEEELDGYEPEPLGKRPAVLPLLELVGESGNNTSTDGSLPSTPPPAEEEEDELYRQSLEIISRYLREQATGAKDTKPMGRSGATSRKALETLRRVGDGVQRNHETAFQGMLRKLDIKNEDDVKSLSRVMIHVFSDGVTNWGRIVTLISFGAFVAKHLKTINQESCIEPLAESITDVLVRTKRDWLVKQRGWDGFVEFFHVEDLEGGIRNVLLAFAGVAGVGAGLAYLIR

For CN(C)CC[C@H](CSc1ccccc1)Nc1ccc(S(=O)(=O)NC(=O)c2ccc(N3CCN(Cc4ccccc4-c4ccc(Cl)cc4)CC3)cc2)cc1[N+](=O)[O-] [ABT-737], the oral bioavailability [1] is listed as “not orally bioavailable”, the aqueous solubility [2] is listed as “low aqueous solubility” and the “efficacy in animal models” value (established tumors) is listed as “improves survival, causes regression of established tumors, and produces cures in a high percentage of the mice”.

For CC1(C)CCC(CN2CCN(c3ccc(C(=O)NS(=O)(=O)c4ccc(NCC5CCOCC5)c([N+](=O)[O-])c4)c(Oc4cnc5[nH]ccc5c4)c3)CC2)=C(c2ccc(Cl)cc2)C1 [ABT-199], the IC50 ([3]; RS4-11) is given as 1200 nM, the “activity to Mcl-1” value (Mcl-1) is given as “no activity” and the EC50 (RS4; 11 cells) is given as 8 nM. For the same compound, the “apoptosis in RS4; 11 cells” value (RS4; 11 cells; cytochrome c release, caspase activation, accumulation of sub-G0/G1 DNA) was “induces a rapid apoptosis”, the EC50 (CLL) was 3 nM and the “maximal tumor growth inhibition” value (RS4; 11 xenografts) was 95%. The tumor growth delay (RS4; 11 xenografts) was 152%, the “xenograft growth DoHH2” value (DoHH2 xenograft) was “inhibits xenograft growth” and the “xenograft growth Granta-519” value (Granta-519 xenograft) was “inhibits xenograft growth”. The clinical efficacy [4] was “highly efficacious”.

In the case of CC1(C)CCC(c2ccc(Cl)cc2)=C(CN2CCN(c3ccc(C(=O)NS(=O)(=O)c4ccc(N[C@H](CCN5CCOCC5)CSc5ccccc5)c(S(=O)(=O)C(F)(F)F)c4)cc3)CC2)C1 [ABT-263], the Ki (Bcl-w) is listed as 1 nM, the IC50 (SCLC H146 cell line) is listed as 110 nM and the TGI (H345 xenograft) is listed as 80%. The “treated tumors indicating at least a 50% reduction in tumor volume” value (H345 xenograft) was 20%, the tumor regression [5] was “complete tumor regressions” and the “effect on number of circulating platelets” value (circulating platelets) was “rapid, concentration-dependent decrease in the number of circulating platelets”. The oral bioavailability [1] was “orally bioavailable”.

CC(C)Oc1ccccc1[C@@H]1CCCN1C1CC2(CCN(c3ccc(C(=O)NS(=O)(=O)c4ccc(NCC5CCC(C)(O)CC5)c([N+](=O)[O-])c4)c(N4c5cc6cc[nH]c6nc5O[C@@H]5COC[C@H]54)c3)CC2)C1 (stereo partly drawn) [Example 45, N-((4-((((1r,4r)-4-hydroxy-4-methylcyclohexyl)methyl)amino)-3-nitrophenyl)sulfonyl)-4-(2-((S)-2-(2-isopropoxyphenyl)pyrrolidin-1-yl)-7-azaspiro[3.5]nonan-7-yl)-2-((5aR,8aS)-5a,6,8,8a-tetrahydrofuro[3,4-b]pyrrolo[3′,2′:5,6]pyrido[3,2-e][1,4]oxazin-5(1H)-yl)benzamide] gave an IC50 (Bcl-2) of 0.198 nM and an IC50 [3] of 23.8 nM.

CC(C)c1cc(F)ccc1[C@@H]1CCCN1C1CC2(CCN(c3ccc(C(=O)NS(=O)(=O)c4ccc(NCC5CCOCC5)c([N+](=O)[O-])c4)c(N4c5cc6cc[nH]c6nc5O[C@@H]5COC[C@H]54)c3)CC2)C1 [Example 60, 2-[(11R,15S)-13,16-dioxa-2,4,10-triazatetracyclo[7.7.0.0^{3,7}.0^{11,15}]hexadeca-1(9),2,5,7-tetraen-10-yl]-4-{2-[(2S)-2-(4-fluoro-2-isopropylphenyl)pyrrolidin-1-yl]-7-azaspiro[3.5]nonan-7-yl}-N-{3-nitro-4-[(oxan-4-ylmethyl)amino]benzenesulfonyl}benzamide] showed an IC50 (Bcl-2) of 0.341 nM and an IC50 [3] of 62.4 nM.
